Results taken from ChEMBL document CHEMBL1201862, “PubChem BioAssay data set” (2004).
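Each compound was tested at five concentrations against cells in 96-well plates for 48 hours. GI50 = concentration required for 50% inhibition of growth.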 Activity calls are given as the source filed them. Cut-off read from the data, not from the text of the source: active = GI50 up to about 1.1 µM and inactive = higher.

How the values were obtained:
Assay in all cases: DTP human tumour cell line panel, 48 h
786-0 = system: 786-0
A498 = system: A498
A549 = system: A549
ACHN = system: ACHN
BT-549 = system: BT-549
CAKI-1 = system: CAKI-1
CCRF-CEM = system: CCRF-CEM
COLO 205 = system: COLO 205
DU-145 = system: DU-145
EKVX = system: EKVX
HCC 2998 = system: HCC 2998
HCT-116 = system: HCT-116
HCT-15 = system: HCT-15
HL-60 = system: HL-60
HOP-62 = system: HOP-62
HT-29 = system: HT-29
Hs-578T = system: Hs-578T
IGROV-1 = system: IGROV-1
K562 = system: K562
KM12 = system: KM12
LOX IMVI = system: LOX IMVI
M14 = system: M14
MCF7 = system: MCF7
MDA-MB-231 = system: MDA-MB-231
MDA-MB-435 = system: MDA-MB-435
MDA-N = system: MDA-N
MOLT-4 = system: MOLT-4
Malme-3M = system: Malme-3M
NCI-H226 = system: NCI-H226
NCI-H23 = system: NCI-H23
NCI-H460 = system: NCI-H460
NCI-H522 = system: NCI-H522
NCI/ADR-RES = system: NCI/ADR-RES
OVCAR-3 = system: OVCAR-3
OVCAR-4 = system: OVCAR-4
OVCAR-5 = system: OVCAR-5
OVCAR-8 = system: OVCAR-8
PC-3 = system: PC-3
RPMI-8226 = system: RPMI-8226
RXF 393 = system: RXF 393
SF-268 = system: SF-268
SF-295 = system: SF-295
SF-539 = system: SF-539
SK-MEL-28 = system: SK-MEL-28
SK-MEL-2 = system: SK-MEL-2
SK-MEL-5 = system: SK-MEL-5
SK-OV-3 = system: SK-OV-3
SN12C = system: SN12C
SNB-19 = system: SNB-19
SNB-75 = system: SNB-75
SR = system: SR
SW-620 = system: SW-620
T47D = system: T47D
TK-10 = system: TK-10
U-251 = system: U-251
UACC-257 = system: UACC-257
UACC-62 = system: UACC-62
UO-31 = system: UO-31
HOP-92 = system: HOP-92

O=C1c2cccnc2C(=O)c2c1nc1ccccc1c2-c1cncc(-c2c3c(nc4ccccc24)C(=O)c2cccnc2C3=O)c1
GI50 (786-0): 0.0995 µM (active) | GI50 (A498): 2.56 µM (inactive) | GI50 (A549): 0.37 µM (active) | GI50 (ACHN): 0.124 µM (active) | GI50 (BT-549): 0.502 µM (active) | GI50 (CAKI-1): 0.332 µM (active) | GI50 (CCRF-CEM): 0.198 µM (active) | GI50 (COLO 205): 0.525 µM (active) | GI50 (DU-145): 0.165 µM (active) | GI50 (EKVX): 0.264 µM (active) | GI50 (HCC 2998): 0.359 µM (active) | GI50 (HCT-116): 0.139 µM (active) | GI50 (HCT-15): 0.0251 µM | GI50 (HL-60): 0.0687 µM (active) | GI50 (HOP-62): 0.281 µM (active) | GI50 (HT-29): 0.327 µM (active) | GI50 (Hs-578T): 0.39 µM (active) | GI50 (IGROV-1): < 0.0144 µM (active) | GI50 (K562): 0.213 µM (active) | GI50 (KM12): 0.212 µM (active) | GI50 (LOX IMVI): 0.139 µM (active) | GI50 (M14): 0.115 µM (active) | GI50 (MCF7): 0.157 µM (active) | GI50 (MDA-MB-231): 0.237 µM (active) | GI50 (MDA-MB-435): 0.256 µM (active) | GI50 (MDA-N): 0.399 µM (active) | GI50 (MOLT-4): 0.117 µM (active) | GI50 (Malme-3M): 0.28 µM (active) | GI50 (NCI-H226): 0.163 µM (active) | GI50 (NCI-H23): 0.343 µM (active) | GI50 (NCI-H460): 0.19 µM (active) | GI50 (NCI-H522): 0.103 µM (active) | GI50 (NCI/ADR-RES): 0.253 µM (active) | GI50 (OVCAR-3): 0.0752 µM (active) | GI50 (OVCAR-4): 0.236 µM (active) | GI50 (OVCAR-5): 1.8 µM (inactive) | GI50 (OVCAR-8): 0.0634 µM (active) | GI50 (PC-3): 0.303 µM (active) | GI50 (RPMI-8226): 0.141 µM (active) | GI50 (RXF 393): 0.316 µM (active) | GI50 (SF-268): 0.159 µM (active) | GI50 (SF-295): 0.614 µM (active) | GI50 (SF-539): 2.19 µM (inactive) | GI50 (SK-MEL-28): 0.22 µM (active) | GI50 (SK-MEL-2): 0.693 µM (active) | GI50 (SK-MEL-5): 0.0568 µM (active) | GI50 (SK-OV-3): 0.363 µM (active) | GI50 (SN12C): 0.126 µM (active) | GI50 (SNB-19): 0.22 µM (active) | GI50 (SNB-75): 0.398 µM (active) | GI50 (SR): < 0.01 µM (active) | GI50 (SW-620): 0.041 µM (active) | GI50 (T47D): 0.439 µM (active) | GI50 (TK-10): 0.458 µM (active) | GI50 (U-251): 0.146 µM (active) | GI50 (UACC-257): 0.318 µM (active) | GI50 (UACC-62): 0.474 µM (active) | GI50 (UO-31): 0.244 µM (active)

O=C1CSC2(CC(/C=C/c3cccc(Br)c3)=NN2c2cccc(S(=O)(=O)O)c2)N1c1nc2ccccc2s1 (configuration not stated)
GI50 (786-0): > 100 µM (inactive) | GI50 (A498): > 100 µM (inactive) | GI50 (A549): > 100 µM (inactive) | GI50 (ACHN): > 100 µM (inactive) | GI50 (BT-549): > 100 µM (inactive) | GI50 (CAKI-1): > 100 µM (inactive) | GI50 (CCRF-CEM): 20 µM (inactive) | GI50 (COLO 205): > 100 µM (inactive) | GI50 (DU-145): > 100 µM (inactive) | GI50 (EKVX): > 100 µM (inactive) | GI50 (HCC 2998): > 100 µM (inactive) | GI50 (HCT-116): > 100 µM (inactive) | GI50 (HCT-15): > 100 µM | GI50 (HOP-62): > 100 µM (inactive) | GI50 (HOP-92): > 49.7 µM (inactive) | GI50 (HT-29): > 100 µM (inactive) | GI50 (Hs-578T): > 100 µM (inactive) | GI50 (IGROV-1): 58.6 µM (inactive) | GI50 (K562): 42.8 µM (inactive) | GI50 (KM12): > 90.8 µM (inactive) | GI50 (LOX IMVI): > 82.6 µM (inactive) | GI50 (M14): > 100 µM (inactive) | GI50 (MCF7): 65.6 µM (inactive) | GI50 (MDA-MB-231): > 100 µM (inactive) | GI50 (MDA-MB-435): 62.4 µM (inactive) | GI50 (MDA-N): > 100 µM (inactive) | GI50 (MOLT-4): > 100 µM (inactive) | GI50 (Malme-3M): > 100 µM (inactive) | GI50 (NCI-H226): > 100 µM (inactive) | GI50 (NCI-H23): > 100 µM (inactive) | GI50 (NCI-H460): > 100 µM (inactive) | GI50 (NCI-H522): 58.5 µM (inactive) | GI50 (NCI/ADR-RES): > 100 µM (inactive) | GI50 (OVCAR-3): > 100 µM (inactive) | GI50 (OVCAR-4): > 77.8 µM (inactive) | GI50 (OVCAR-5): > 100 µM (inactive) | GI50 (OVCAR-8): > 79.8 µM (inactive) | GI50 (PC-3): > 100 µM (inactive) | GI50 (RPMI-8226): 25.5 µM (inactive) | GI50 (RXF 393): > 100 µM (inactive) | GI50 (SF-268): > 100 µM (inactive) | GI50 (SF-295): > 100 µM (inactive) | GI50 (SF-539): > 100 µM (inactive) | GI50 (SK-MEL-28): > 100 µM (inactive) | GI50 (SK-MEL-2): > 100 µM (inactive) | GI50 (SK-MEL-5): > 100 µM (inactive) | GI50 (SK-OV-3): > 100 µM (inactive) | GI50 (SN12C): > 100 µM (inactive) | GI50 (SNB-19): > 100 µM (inactive) | GI50 (SNB-75): > 100 µM (inactive) | GI50 (SR): 41.5 µM (inactive) | GI50 (SW-620): > 100 µM (inactive) | GI50 (T47D): 38.5 µM (inactive) | GI50 (TK-10): > 100 µM (inactive) | GI50 (U-251): > 100 µM (inactive) | GI50 (UACC-257): > 100 µM (inactive) | GI50 (UACC-62): 80.2 µM (inactive) | GI50 (UO-31): > 96.6 µM (inactive)

COc1ccc(-n2c(CCC(=O)O)nc3c2C(=O)c2ccccc2C3=O)cc1
GI50 (786-0): > 100 µM (inactive) | GI50 (A498): > 100 µM (inactive) | GI50 (A549): > 100 µM (inactive) | GI50 (ACHN): > 100 µM (inactive) | GI50 (BT-549): > 100 µM (inactive) | GI50 (CAKI-1): > 100 µM (inactive) | GI50 (CCRF-CEM): 88.9 µM (inactive) | GI50 (COLO 205): > 100 µM (inactive) | GI50 (DU-145): > 100 µM (inactive) | GI50 (EKVX): > 100 µM (inactive) | GI50 (HCC 2998): > 100 µM (inactive) | GI50 (HCT-116): 80.2 µM (inactive) | GI50 (HCT-15): > 100 µM | GI50 (HL-60): > 100 µM (inactive) | GI50 (HOP-62): > 100 µM (inactive) | GI50 (HT-29): > 100 µM (inactive) | GI50 (Hs-578T): > 100 µM (inactive) | GI50 (K562): 71.3 µM (inactive) | GI50 (KM12): > 100 µM (inactive) | GI50 (LOX IMVI): 28.3 µM (inactive) | GI50 (M14): > 100 µM (inactive) | GI50 (MCF7): 84.5 µM (inactive) | GI50 (MDA-MB-231): > 100 µM (inactive) | GI50 (MDA-MB-435): 96.4 µM (inactive) | GI50 (MDA-N): > 100 µM (inactive) | GI50 (MOLT-4): > 100 µM (inactive) | GI50 (NCI-H226): > 100 µM (inactive) | GI50 (NCI-H23): > 100 µM (inactive) | GI50 (NCI-H460): > 100 µM (inactive) | GI50 (NCI-H522): 34.3 µM (inactive) | GI50 (NCI/ADR-RES): > 100 µM (inactive) | GI50 (OVCAR-3): 98.2 µM (inactive) | GI50 (OVCAR-4): > 100 µM (inactive) | GI50 (OVCAR-5): > 100 µM (inactive) | GI50 (OVCAR-8): > 100 µM (inactive) | GI50 (PC-3): > 100 µM (inactive) | GI50 (RPMI-8226): > 100 µM (inactive) | GI50 (RXF 393): > 100 µM (inactive) | GI50 (SF-268): > 100 µM (inactive) | GI50 (SF-295): > 100 µM (inactive) | GI50 (SF-539): > 100 µM (inactive) | GI50 (SK-MEL-28): > 100 µM (inactive) | GI50 (SK-MEL-2): 88.1 µM (inactive) | GI50 (SK-MEL-5): > 100 µM (inactive) | GI50 (SK-OV-3): > 100 µM (inactive) | GI50 (SN12C): > 100 µM (inactive) | GI50 (SNB-19): > 100 µM (inactive) | GI50 (SNB-75): > 100 µM (inactive) | GI50 (SR): > 100 µM (inactive) | GI50 (SW-620): > 100 µM (inactive) | GI50 (T47D): 33 µM (inactive) | GI50 (TK-10): > 100 µM (inactive) | GI50 (U-251): > 100 µM (inactive) | GI50 (UACC-257): > 100 µM (inactive) | GI50 (UACC-62): > 100 µM (inactive) | GI50 (UO-31): > 100 µM (inactive)
